Article PMC10771296, “Plectasin: from evolution to truncation, expression, and better druggability” (Frontiers in Microbiology, 2023)
Converted amounts (≈) assume the structure as drawn. Where a SMILES comes first, the peptide text is derived from it. Bridges are numbered along the chain shown (N, C = ends).

Test system: S. aureus ATCC43300
Experiment: Stability in simulated (artificial) gastric fluid read out as MIC
Format: in vitro ADME, Staphylococcus aureus
Description: The stability of Ple-AB was assessed based on its antibacterial activity against S. aureus ATCC43300. Temperature stability was determined by incubation at 20, 40, 60, 80, and 100°C for 1 h ([Li et al., 2020]). The pH stability was determined by incubation in buffers with a pH of 2, 4, 6, 8, and 10 for 4 h ([Yang et al., 2017]). The peptides were incubated with different concentrations of metal ions, serum, artificial gastric fluid, and simulated intestinal fluid to assess their stability in the blood and intestines ([Lyu et al., 2019]). All the treatments were performed in triplicates.

Compound: CC[C@H](C)[C@@H]1NC(=O)[C@H](CO)NC(=O)[C@H](CCCCN)NC(=O)[C@@H]2CSSC[C@@H](C(=O)N[C@@H](Cc3ccc(O)cc3)C(=O)O)NC(=O)[C@H](CCCCN)NC(=O)[C@@H]3CSSC[C@H](NC(=O)[C@H](CCC(N)=O)NC(=O)[C@H](CCSC)NC(=O)[C@H](CCC(=O)O)NC(=O)[C@H](CC(=O)O)NC(=O)[C@H](Cc4c[nH]c5ccccc45)NC(=O)[C@@H]4CCCN4C(=O)[C@@H](NC(=O)CNC(=O)[C@H](Cc4ccccc4)NC(=O)CN)CSSC[C@H](NC(=O)[C@H](Cc4ccc(O)cc4)NC(=O)CNC(=O)CNC(=O)[C@H](CCCCN)NC(=O)[C@H](Cc4ccc(O)cc4)NC(=O)CNC(=O)[C@H](CCCCN)NC1=O)C(=O)N[C@@H](C)C(=O)N[C@@H](CCCCN)C(=O)NCC(=O)NCC(=O)N[C@@H](Cc1ccccc1)C(=O)N[C@@H](C(C)C)C(=O)N3)C(=O)N[C@@H](Cc1c[nH]cn1)C(=O)N[C@@H](CC(N)=O)C(=O)N[C@@H](Cc1c[nH]cn1)C(=O)N2 [Ple-AB] (H-GFGCPWDEMQCHNHCKSIKGYKGGYCAKGGFVCKCY-OH; disulfide 4-26, 11-33, 15-35; N-terminus and C-terminus assumed)
- MIC after Simulated Gastric Fluid (Simulated Gastric Fluid (pepsin), 1-2 h, triplicates): 16 µg/mL (≈ 4 µM)
- MIC after artificial gastric juice (artificial gastric juice (pepsin), 2 h): 16 µg/mL (≈ 4 µM)
